# From US4880826A, “Melatonin antagonist” (priority 1986, dated 1989)
# Assays:
# Melatonin receptor = Melatonin receptor assay using 2-125I-iodo-ML-23; type: binding, rat; settings: female rats: hypothalamus, medulla-pons, hippocampus, cerebellum, striatum, parietal cortex
# Experimental: Tissue sections or isolated cells were suspended in 10 ml/g ice-cold 0.32M sucrose, homogenized in a teflon-glass homogenizer. The homogenate was centrifuged (10000 g-min) the pellet was discarded and the supernatant centrifuged (68000 g-min). The crude membrane pellet was suspended in 2 vol of 50 mM Tris-HCL buffer, pH 7.4 containing 4 mM CaCl2. 2-^125 I-iodo-ML-23 was prepared by iodination of ML-23 with Na^125 I (Amersham) (20 CI/mmol) in the presence of Iodo-Gen. The principal iodination product, 2-^125 I-iodo-ML 23 (^125 I-MLI-23) was separated from unsubstituted ML-23 as described in Example 2. Aliquots of the membrane preparations (200 μg protein/20 μl) were incubated with 40 μl Trisbuffer containing 20-100 nM ^125 I-MLI-23 for 30 min. at 37° C. on a shaking water bath, in the absence or presence of unlabelled melatonin (50 μM). Membranes were then collected by vacuum filtration using GF/C glass fiber filters and washed with 3×4 ml buffer at 4° C. The filters containing bound ^125 I-ML-23 were assayed for radioactivity using a Packard gamma counter. Specific binding was defined as that displaced by 50 μM of non-radioactive melatonin and ranged from 50 to 60% of the total binding at 50 nM ^125 I-MLI-23. […]
# prepubertal male rats = assay: Long-term administration to prepubertal male rats: accessory sex organ development and testosterone; type: in vivo, rat
# From the text: (1) Long-term administration of melatonin (via the drinking water or via intraperitoneal injection) to prepubertal male rats results in retardation of testicular accessory sex organ development.
# (4) Long-term administration of ML-23 alone to prepubertal male rats, enhanced testosterone levels in the blood of the animals.
# adult female rats = assay: Melatonin block of luteinizing hormone secretion and ovulation in adult female rats at proestrus; type: in vivo, rat
# From the text: (2) Melatonin administration to adult female rats in the afternoon of proestrus blocks the phasic secretion of luteinizing hormone and ovulation.
# [1] = system: Female rats kept under constant illumination; assay: Ovarian cyclicity of female rats kept under constant illumination; type: in vivo, rat
# rat hypothalamus = settings: cited from earlier work
# [2] = oral administration in the presence of melatonin
compound,measurement,setting,value
COc1ccc2[nH]c([125I])c(CCNc3ccc([N+](=O)[O-])cc3[N+](=O)[O-])c2c1 [^125 I-MLI-23],specific binding in brain regions,Melatonin receptor,found
"COc1ccc2[nH]cc(CCNC(C)=O)c2c1 [melatonin, 5-methoxy-N-acetyl-tryptamine]",testicular accessory sex organ development,prepubertal male rats; long-term administration via the drinking water or intraperitoneal injection,retardation
same,phasic secretion of luteinizing hormone and ovulation,"adult female rats; administration in the afternoon of proestrus, adult female rats",blocks
same,ovarian cyclicity,"[1]; daily melatonin injections, female rats under constant illumination",reestablish ovarian cyclicity
same,stimulated release of dopamine,rat hypothalamus,inhibits
"COc1ccc2[nH]cc(CCNc3ccc([N+](=O)[O-])cc3[N+](=O)[O-])c2c1 [ML-23, N-2,4-dinitrophenyl-5-methoxy-tryptamine]",testosterone levels in the blood,prepubertal male rats; long-term administration alone,enhanced
same,effect on melatonin's suppressive effects on prostate and seminal vesicle growth,prepubertal male rats; [2],entirely abolished
same,effect on melatonin's suppressive effects on serum testosterone levels,prepubertal male rats; [2],entirely abolished
same,effect on melatonin block of luteinizing hormone secretion and ovulation,"adult female rats; via the drinking water, female rats given melatonin",prevented the effect of melatonin and normal ovulation occurred
same,ovarian cyclicity re-established by daily melatonin injections,"[1]; rats treated orally with the antagonist, constant illumination",not in rats treated orally with ML-23
